Assay results taken from ChEMBL document CHEMBL2010796, “Systematic structure modifications of imidazo[1,2-a]pyrimidine to reduce metabolism mediated by aldehyde oxidase (AO)” (J Med Chem, 2011).
Values belong to the compound of their own block, whether it stands above or below them. Active and inactive are the calls of the source. No cut-off for these calls is given here.

How the values were obtained:
[1] = biological target: T1, Androgen receptor (Homo sapiens) (UniProt P10275); assay: Antagonist activity at human androgen receptor expressed in LNAR cells assessed as inhibition of […]-induced luciferase activity by reporter gene assay; type: functional, cell-based
T1 sequence (whole entry): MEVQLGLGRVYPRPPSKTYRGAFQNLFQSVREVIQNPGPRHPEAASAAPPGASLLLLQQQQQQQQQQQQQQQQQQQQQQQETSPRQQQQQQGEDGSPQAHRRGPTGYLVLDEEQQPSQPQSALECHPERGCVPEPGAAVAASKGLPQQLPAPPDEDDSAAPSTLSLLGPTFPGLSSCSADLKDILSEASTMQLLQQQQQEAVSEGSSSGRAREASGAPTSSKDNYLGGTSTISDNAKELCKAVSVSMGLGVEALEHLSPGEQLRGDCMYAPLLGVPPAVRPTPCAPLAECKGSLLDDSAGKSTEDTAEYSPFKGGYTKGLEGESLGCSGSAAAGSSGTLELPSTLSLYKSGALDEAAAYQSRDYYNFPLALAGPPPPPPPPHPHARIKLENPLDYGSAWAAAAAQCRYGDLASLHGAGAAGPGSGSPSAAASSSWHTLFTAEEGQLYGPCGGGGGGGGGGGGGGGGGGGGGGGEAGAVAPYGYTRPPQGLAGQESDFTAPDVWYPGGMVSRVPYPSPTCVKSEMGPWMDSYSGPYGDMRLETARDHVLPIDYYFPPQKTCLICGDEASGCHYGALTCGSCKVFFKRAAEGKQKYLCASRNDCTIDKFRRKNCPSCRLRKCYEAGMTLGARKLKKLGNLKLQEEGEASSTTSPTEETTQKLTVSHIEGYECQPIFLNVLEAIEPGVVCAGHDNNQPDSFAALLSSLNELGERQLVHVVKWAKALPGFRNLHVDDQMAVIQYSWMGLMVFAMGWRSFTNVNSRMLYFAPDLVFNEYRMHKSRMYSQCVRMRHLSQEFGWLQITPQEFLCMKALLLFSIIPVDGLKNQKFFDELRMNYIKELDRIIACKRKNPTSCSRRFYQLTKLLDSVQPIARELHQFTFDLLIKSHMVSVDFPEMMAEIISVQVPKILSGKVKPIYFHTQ

[2] = Drug metabolism in human liver microsomes assessed as CYP450-mediated oxidation; type: ADME, Microsome
[3] = Kinetic solubility in water; type: physicochemical; settings: read-out: Kinetic_solubility
[4] = Oral bioavailability in rat; type: ADME, organism-based; settings: in vivo
[5] = Plasma clearance in rat; type: ADME, organism-based
[6] = Half life in rat; type: ADME, organism-based; settings: in vivo

- inhibition [1]: Active
Compound: CC1(C)[C@H](NC(=O)c2cnc3ncccn23)C(C)(C)[C@H]1Oc1ccc(C#N)c(C#N)c1

- inhibition [1]: Active
Compound: CC1(C)[C@H](NC(=O)c2cnc3ncccn23)C(C)(C)[C@H]1Oc1ccc(C#N)c(Cl)c1

The remaining lines, values behind:

Compound: Cc1nc(O[C@H]2C(C)(C)[C@H](NC(=O)c3cnc4ccccn34)C2(C)C)ccc1C#N
- Drug metabolism [2]: Active
- solubility kinetic [3]: < 0.4 µM

Compound: Cc1nc(O[C@H]2C(C)(C)[C@H](NC(=O)c3cnc4ncccn34)C2(C)C)ccc1C#N
- bioavailability [4]: 31%
- clearance [5]: 11.6 mL/min/kg
- half-life [6]: 3.6 h

Compound: COc1nc(O[C@H]2C(C)(C)[C@H](NC(=O)c3cnc4ncccn34)C2(C)C)ccc1C#N
- inhibition [1]: Active
